Legend:
human m2 receptor = biological target: T1, human m2 receptor (Homo sapiens, UniProt P08172); assay: inhibition of forskolin-stimulated cAMP accumulation, m2 receptor; format: cell-based; settings: standard agonist, typical value, 5 μM forskolin
T1 sequence (P08172 1-466): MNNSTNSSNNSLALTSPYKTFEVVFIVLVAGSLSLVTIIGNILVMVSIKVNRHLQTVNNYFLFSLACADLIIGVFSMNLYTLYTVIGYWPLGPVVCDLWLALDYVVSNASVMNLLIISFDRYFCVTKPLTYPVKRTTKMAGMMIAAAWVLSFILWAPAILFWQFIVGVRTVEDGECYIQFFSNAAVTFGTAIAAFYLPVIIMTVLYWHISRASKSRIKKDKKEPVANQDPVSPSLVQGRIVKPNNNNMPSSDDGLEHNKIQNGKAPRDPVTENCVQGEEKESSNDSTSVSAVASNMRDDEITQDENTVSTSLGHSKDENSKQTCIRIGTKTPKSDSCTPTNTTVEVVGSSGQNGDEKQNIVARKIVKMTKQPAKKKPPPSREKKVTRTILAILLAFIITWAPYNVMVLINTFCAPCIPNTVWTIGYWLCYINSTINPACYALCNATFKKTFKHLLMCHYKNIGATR
Source text: (§1) Activity of the compounds of formula I for muscarinic receptors can be determined according to the following protocol. Chinese hamster ovary cells (CHO-K1) stably transformed to express human m1-m5 receptors can be obtained from Dr. Tom Bonner (Laboratory of Cell Biology, National Institute of Mental Health, Building 36, Rm 3A-17, National Institute of Health, Bethesda, Md. 20892). Cells are maintained in Dulbecco's Modified Eagle Medium containing 10% fetal calf serum and harvested at confluence by brief incubation in Ca^++/Mg^++-free phosphate-buffered saline containing 4 mM EDTA.
(§2) Functional responses at m2 and m4 receptors can be determined by measuring inhibition of forskolin-stimulated cAMP accumulation. Harvested cells are preincubated (15 minutes at 20-22° C.) with 3-isobutyl-1-methyl-xanthine (IBMX; 0.2 mM) and then incubated (10 minutes at 20-22° C.) in a HEPES-buffered Krebs solution with test compounds in the presence of 5 μM forskolin. The reaction is stopped by the addition of 10 N acetic acid and the cAMP content of dried supernatants is determined using a scintillation proximity assay (Amersham).

human m4 receptor = biological target: T2, human m4 receptor (Homo sapiens, UniProt P08173); assay: inhibition of forskolin-stimulated cAMP accumulation, m4 receptor; format: cell-based; settings: standard agonist, typical value, 5 μM forskolin
T2 construct: host or cells: CHO-K1
T2 sequence (P08173 1-479): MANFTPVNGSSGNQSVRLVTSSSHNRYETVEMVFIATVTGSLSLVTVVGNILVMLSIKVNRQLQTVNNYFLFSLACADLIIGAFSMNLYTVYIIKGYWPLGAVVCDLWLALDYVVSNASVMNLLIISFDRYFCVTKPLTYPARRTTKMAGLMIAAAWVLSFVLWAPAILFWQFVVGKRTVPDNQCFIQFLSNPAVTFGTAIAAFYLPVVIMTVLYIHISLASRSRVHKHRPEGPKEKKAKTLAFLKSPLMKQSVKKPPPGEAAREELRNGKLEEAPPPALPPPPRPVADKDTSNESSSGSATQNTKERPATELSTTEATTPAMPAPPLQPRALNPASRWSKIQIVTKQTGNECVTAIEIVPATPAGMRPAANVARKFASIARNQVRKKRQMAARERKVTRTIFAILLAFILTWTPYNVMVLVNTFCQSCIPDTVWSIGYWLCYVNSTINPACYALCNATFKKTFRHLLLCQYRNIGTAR
Source text: as §1, §2

inhibition of the forskolin-stimulated cAMP levels (human m2 receptor): 60-80%
inhibition of the forskolin-stimulated cAMP levels (human m4 receptor): 60-80%
SMILES: C[N+](C)(C)CCOC(N)=O [Carbachol]

From patent publication US6911477B2, “Muscarinic receptor agonists” (Pfizer Inc., priority 1996, dated 2005)
